In article PMC7413254 (Nature Communications, 2020):

Columns and labels:
Type in all cases: cell-based
[1] = target: T1, PfCRT^Dd2 (Plasmodium falciparum, UniProt Q9N623, A220S/I356T/K76T/M74I/N326S/N75E/Q271E/R371I); assay: cell-based; settings: for PfCRT-mediated [3H]CQ transport, trans-stimulation (% PfCRTDd2 control): PfCRTDd2 oocytes, normalised to oocyte type control; for [3H]CQ transport (% PfCRTDd2 control), trans-stimulation, PfCRTDd2: PfCRT-mediated component (background subtracted), mean ± SEM, SEM
Outline: (§1)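 Oocytes (ten per treatment, ≥4 independent frogs/days) were preloaded by injecting VF-6 in 25 nL ND96 at pH 5.0, 5.5, 6.0 or 7.0, or Na^+-free choline buffer, then uptake run 1.5 h, 27.5 °C, ND96 pH 5.5 by default. Internal concentrations assumed ~400 nL oocyte volume.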

[2] = target: T2, PfCRT^Ecu1110 (Plasmodium falciparum, UniProt Q9N623, A220S/I356L/K76T/N326D); assay: cell-based; settings: for PfCRT-mediated [3H]CQ transport, trans-stimulation (% PfCRTEcu1110 control): PfCRTEcu1110 oocytes, normalised to oocyte type control; for [3H]CQ transport (% PfCRTDd2 control), trans-stimulation, PfCRTEcu1110: PfCRT-mediated component (background subtracted), sheet title says normalised to PfCRTDd2 control, mean ± SEM, SEM
Outline: as §1

[3] = target: PfCRT^3D7 (Plasmodium falciparum, UniProt Q8IBZ9); assay: cell-based; settings: PfCRT3D7 oocytes, normalised to oocyte type control
Outline: as §1

[4] = target: T1, PfCRT^Dd2; assay: [3H]CQ uptake into Xenopus oocytes, cis-inhibition by unlabelled solute; settings: PfCRTDd2 oocytes, background [3H]CQ accumulation subtracted, normalised to oocyte type control
Outline: (§2)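 Inward transport into oocyte cytosol from pH 5.5 medium models PfCRT efflux from the acidic digestive vacuole. Incubation 1.5 h, 27.5 °C; termination by ice-cold washes; lysate radioactivity counted.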

[5] = target: T2, PfCRT^Ecu1110; assay: as above; settings: for PfCRT-mediated [3H]CQ transport, cis-inhibition (% PfCRTEcu1110 control): PfCRTEcu1110 oocytes, background [3H]CQ accumulation subtracted, normalised to oocyte type control; for [3H]CQ transport (% PfCRTEcu1110 control), cis-inhibition, PfCRTEcu1110: PfCRT-mediated component (background subtracted), sheet title says normalised to PfCRTDd2 control, mean ± SEM, SEM
Outline: as §2

[6] = [test solute]i = 5 mM (intracellular)
[7] = [test solute]i = 45 mM (intracellular; 30 mM for some solutes due to solubility)
[8] = [test solute]i = 5 mM (injected)
[9] = [test solute]i = 45 mM (30 mM for some solutes due to solubility)

T1 sequence (Q9N623 whole entry A220S/I356T/K76T/M74I/N326S/N75E/Q271E/R371I): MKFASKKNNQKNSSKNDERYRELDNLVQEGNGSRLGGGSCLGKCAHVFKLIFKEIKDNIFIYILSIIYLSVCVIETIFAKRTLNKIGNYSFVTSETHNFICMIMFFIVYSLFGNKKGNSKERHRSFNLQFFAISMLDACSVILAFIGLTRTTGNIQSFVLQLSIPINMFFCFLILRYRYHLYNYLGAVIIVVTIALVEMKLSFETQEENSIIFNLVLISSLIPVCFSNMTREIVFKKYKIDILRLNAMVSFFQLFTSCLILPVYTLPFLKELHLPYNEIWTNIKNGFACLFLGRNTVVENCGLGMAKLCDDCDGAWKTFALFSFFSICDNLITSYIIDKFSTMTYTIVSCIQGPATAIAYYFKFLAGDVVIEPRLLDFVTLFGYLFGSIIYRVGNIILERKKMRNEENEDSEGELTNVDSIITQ
PfCRT^3D7, sequence (Q8IBZ9 59-398): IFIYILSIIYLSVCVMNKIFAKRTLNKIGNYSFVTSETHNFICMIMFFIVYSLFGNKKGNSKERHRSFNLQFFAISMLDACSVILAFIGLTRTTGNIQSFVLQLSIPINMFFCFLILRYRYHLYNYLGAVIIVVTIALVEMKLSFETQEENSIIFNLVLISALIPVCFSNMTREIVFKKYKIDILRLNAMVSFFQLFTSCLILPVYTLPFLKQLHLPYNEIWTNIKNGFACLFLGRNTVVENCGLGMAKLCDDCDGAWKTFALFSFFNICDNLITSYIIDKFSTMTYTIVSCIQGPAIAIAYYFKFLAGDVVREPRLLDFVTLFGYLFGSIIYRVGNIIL
T2 sequence (Q9N623 whole entry A220S/I356L/K76T/N326D): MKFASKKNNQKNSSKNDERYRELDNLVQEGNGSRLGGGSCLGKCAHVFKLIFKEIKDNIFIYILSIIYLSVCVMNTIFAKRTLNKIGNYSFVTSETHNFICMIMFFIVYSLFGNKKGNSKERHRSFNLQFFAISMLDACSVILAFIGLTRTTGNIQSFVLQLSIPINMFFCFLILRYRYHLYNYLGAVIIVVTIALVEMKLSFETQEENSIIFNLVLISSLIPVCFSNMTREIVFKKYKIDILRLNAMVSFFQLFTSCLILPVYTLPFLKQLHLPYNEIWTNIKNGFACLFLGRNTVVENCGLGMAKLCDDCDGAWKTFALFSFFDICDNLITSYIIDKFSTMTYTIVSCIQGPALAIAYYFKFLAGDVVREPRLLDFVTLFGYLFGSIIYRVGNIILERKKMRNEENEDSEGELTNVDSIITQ

YIGSR [YR-5]
PfCRT-mediated [3H]CQ transport, trans-stimulation (% PfCRTDd2 control) [1, 6]: 94 ± 4.6 % PfCRTDd2 control
PfCRT-mediated [3H]CQ transport, trans-stimulation (% PfCRTDd2 control) [1, 7]: 96 ± 4.1 % PfCRTDd2 control
[3H]CQ transport (% PfCRTDd2 control), trans-stimulation, PfCRTDd2 [1, 8]: 94 ± 4.6 % PfCRTDd2 control
[3H]CQ transport (% PfCRTDd2 control), trans-stimulation, PfCRTDd2 [1, 9]: 96 ± 4.1 % PfCRTDd2 control
PfCRT-mediated [3H]CQ transport, trans-stimulation (% PfCRTEcu1110 control) [2, 6]: 98 ± 4.2 % PfCRTEcu1110 control
PfCRT-mediated [3H]CQ transport, trans-stimulation (% PfCRTEcu1110 control) [2, 7]: 96 ± 3.5 % PfCRTEcu1110 control
[3H]CQ transport (% PfCRTDd2 control), trans-stimulation, PfCRTEcu1110 [2, 8]: 30 ± 1.7 % PfCRTEcu1110 control
[3H]CQ transport (% PfCRTDd2 control), trans-stimulation, PfCRTEcu1110 [2, 9]: 29 ± 1.3 % PfCRTEcu1110 control
PfCRT-mediated [3H]CQ transport, trans-stimulation (% PfCRT3D7 control) [3, 6]: 98 ± 2.6 % PfCRT3D7 control
PfCRT-mediated [3H]CQ transport, trans-stimulation (% PfCRT3D7 control) [3, 7]: 94 ± 2.1 % PfCRT3D7 control
PfCRT-mediated [3H]CQ transport, cis-inhibition (% PfCRTDd2 control) ([4]; [test solute] = 0.5 mM): 73 ± 3.9 % PfCRTDd2 control
PfCRT-mediated [3H]CQ transport, cis-inhibition (% PfCRTDd2 control) ([4]; [test solute] = 1 mM): 58 ± 3.1 % PfCRTDd2 control
PfCRT-mediated [3H]CQ transport, cis-inhibition (% PfCRTDd2 control) ([4]; [test solute] = 2 mM): 61 ± 2.9 % PfCRTDd2 control
PfCRT-mediated [3H]CQ transport, cis-inhibition (% PfCRTEcu1110 control) ([5]; [test solute] = 0.5 mM): 71 ± 1.6 % PfCRTEcu1110 control
PfCRT-mediated [3H]CQ transport, cis-inhibition (% PfCRTEcu1110 control) ([5]; [test solute] = 1 mM): 55 ± 1.4 % PfCRTEcu1110 control
PfCRT-mediated [3H]CQ transport, cis-inhibition (% PfCRTEcu1110 control) ([5]; [test solute] = 2 mM): 49 ± 2.4 % PfCRTEcu1110 control
[3H]CQ transport (% PfCRTEcu1110 control), cis-inhibition, PfCRTEcu1110 ([5]; [test solute] = 0.5 mM): 22 ± 0.1 % PfCRTEcu1110 control
[3H]CQ transport (% PfCRTEcu1110 control), cis-inhibition, PfCRTEcu1110 ([5]; [test solute] = 1 mM): 17 ± 0.4 % PfCRTEcu1110 control
[3H]CQ transport (% PfCRTEcu1110 control), cis-inhibition, PfCRTEcu1110 ([5]; [test solute] = 2 mM): 15 ± 0.1 % PfCRTEcu1110 control

VDEVGG [VG-6]
PfCRT-mediated [3H]CQ transport, trans-stimulation (% PfCRTDd2 control) [1, 6]: 102 ± 4.7 % PfCRTDd2 control
PfCRT-mediated [3H]CQ transport, trans-stimulation (% PfCRTDd2 control) [1, 7]: 112 ± 0.9 % PfCRTDd2 control
[3H]CQ transport (% PfCRTDd2 control), trans-stimulation, PfCRTDd2 [1, 8]: 102 ± 4.7 % PfCRTDd2 control
[3H]CQ transport (% PfCRTDd2 control), trans-stimulation, PfCRTDd2 [1, 9]: 112 ± 0.9 % PfCRTDd2 control
PfCRT-mediated [3H]CQ transport, trans-stimulation (% PfCRTEcu1110 control) [2, 6]: 128 ± 4.2 % PfCRTEcu1110 control
PfCRT-mediated [3H]CQ transport, trans-stimulation (% PfCRTEcu1110 control) [2, 7]: 139 ± 4.6 % PfCRTEcu1110 control
[3H]CQ transport (% PfCRTDd2 control), trans-stimulation, PfCRTEcu1110 [2, 8]: 39 ± 1.5 % PfCRTEcu1110 control
[3H]CQ transport (% PfCRTDd2 control), trans-stimulation, PfCRTEcu1110 [2, 9]: 42 ± 2.6 % PfCRTEcu1110 control
PfCRT-mediated [3H]CQ transport, trans-stimulation (% PfCRT3D7 control) [3, 6]: 140 ± 4.4 % PfCRT3D7 control
PfCRT-mediated [3H]CQ transport, trans-stimulation (% PfCRT3D7 control) [3, 7]: 190 ± 3.6 % PfCRT3D7 control
PfCRT-mediated [3H]CQ transport, cis-inhibition (% PfCRTDd2 control) ([4]; [test solute] = 0.5 mM): 55 ± 1.8 % PfCRTDd2 control
PfCRT-mediated [3H]CQ transport, cis-inhibition (% PfCRTDd2 control) ([4]; [test solute] = 1 mM): 44 ± 2.7 % PfCRTDd2 control
PfCRT-mediated [3H]CQ transport, cis-inhibition (% PfCRTDd2 control) ([4]; [test solute] = 2 mM): 38 ± 1.3 % PfCRTDd2 control
PfCRT-mediated [3H]CQ transport, cis-inhibition (% PfCRTEcu1110 control) ([5]; [test solute] = 0.5 mM): 61 ± 3.5 % PfCRTEcu1110 control
PfCRT-mediated [3H]CQ transport, cis-inhibition (% PfCRTEcu1110 control) ([5]; [test solute] = 1 mM): 51 ± 2.6 % PfCRTEcu1110 control
PfCRT-mediated [3H]CQ transport, cis-inhibition (% PfCRTEcu1110 control) ([5]; [test solute] = 2 mM): 39 ± 1.4 % PfCRTEcu1110 control
[3H]CQ transport (% PfCRTEcu1110 control), cis-inhibition, PfCRTEcu1110 ([5]; [test solute] = 1 mM): 16 ± 0.1 % PfCRTEcu1110 control
[3H]CQ transport (% PfCRTEcu1110 control), cis-inhibition, PfCRTEcu1110 ([5]; [test solute] = 2 mM): 12 ± 0.02 % PfCRTEcu1110 control

LHVDPENF [LF-8]
PfCRT-mediated [3H]CQ transport, trans-stimulation (% PfCRTDd2 control) [1, 6]: 99 ± 3.1 % PfCRTDd2 control
PfCRT-mediated [3H]CQ transport, trans-stimulation (% PfCRTDd2 control) [1, 7]: 98 ± 2.3 % PfCRTDd2 control
PfCRT-mediated [3H]CQ transport, trans-stimulation (% PfCRTEcu1110 control) [2, 6]: 96 ± 2.1 % PfCRTEcu1110 control
PfCRT-mediated [3H]CQ transport, trans-stimulation (% PfCRTEcu1110 control) [2, 7]: 95 ± 3.2 % PfCRTEcu1110 control
PfCRT-mediated [3H]CQ transport, trans-stimulation (% PfCRT3D7 control) [3, 6]: 97 ± 2.2 % PfCRT3D7 control
PfCRT-mediated [3H]CQ transport, trans-stimulation (% PfCRT3D7 control) [3, 7]: 98 ± 4.2 % PfCRT3D7 control
PfCRT-mediated [3H]CQ transport, cis-inhibition (% PfCRTDd2 control) ([4]; [test solute] = 0.5 mM): 37 ± 2.0 % PfCRTDd2 control
PfCRT-mediated [3H]CQ transport, cis-inhibition (% PfCRTDd2 control) ([4]; [test solute] = 1 mM): 21 ± 0.5 % PfCRTDd2 control
PfCRT-mediated [3H]CQ transport, cis-inhibition (% PfCRTDd2 control) ([4]; [test solute] = 2 mM): 11 ± 0.2 % PfCRTDd2 control
PfCRT-mediated [3H]CQ transport, cis-inhibition (% PfCRTEcu1110 control) ([5]; [test solute] = 0.5 mM): 31 ± 1.1 % PfCRTEcu1110 control
PfCRT-mediated [3H]CQ transport, cis-inhibition (% PfCRTEcu1110 control) ([5]; [test solute] = 1 mM): 22 ± 2.0 % PfCRTEcu1110 control
PfCRT-mediated [3H]CQ transport, cis-inhibition (% PfCRTEcu1110 control) ([5]; [test solute] = 2 mM): 11 ± 0.1 % PfCRTEcu1110 control
